Experimental findings from US12447146B2, “Topical composition comprising tacrolimus” (MC2 Therapeutics Limited, priority 2016, dated 2025) are described below.

This data set in a line: Solubility of tacrolimus in oil solvents measured by HPLC. Format: physicochemical. How it is done: In this Example, the solubility of tacrolimus in various oil solvents was measured by HPLC.
Approximately 40 mg of tacrolimus was weighed and a known quantity (1-2 g) of oil was added and stirred for 5 hours at room temperature. […] If the tacrolimus appeared to be fully dissolved in under 10 g of oil the sample was then placed at 4° C. overnight. If the tacrolimus precipitated out after cold storage further oil was added and the above steps were repeated until dissolved or the 10 g of oil had been added. All samples were then centrifuged to ensure any non-dissolved tacrolimus was removed and the supernatant analysed by HPLC as described in Example 1.

As to `C=CC[C@@H]1/C=C(\C)C[C@H](C)C[C@H](OC)[C@H]2O[C@@](O)(C(=O)C(=O)N3CCCC[C@H]3C(=O)O[C@H](/C(C)=C/[C@@H]3CC[C@@H](O)[C@H](OC)C3)[C@H](C)[C@@H](O)CC1=O)[C@H](C)C[C@@H]2OC` [tacrolimus], the “Solubility (% wt)” value is 0.44 % wt (tacrolimus in Capric caprylic trigylcerides); 1.44 % wt (tacrolimus in Castor oil); 0.004 % wt (tacrolimus in Cyclomethicone); 3.24* % wt (tacrolimus in Dibutyl adipate, room temperature, then 4° C. overnight, *assay within 95% of theoretical maximum, likely solubility greater than stated); 3.26* % wt (tacrolimus in Diethyl sebacate, room temperature, then 4° C. overnight, *assay within 95% of theoretical maximum, likely solubility greater than stated); 3.08* % wt (tacrolimus in Diisopropyl adipate, room temperature, then 4° C. overnight, *assay within 95% of theoretical maximum, likely solubility greater than stated). Besides, the “Solubility (% wt)” value by setting is: (tacrolimus in Dimethicone) 0.004 % wt; (tacrolimus in Heptylmethylnonane) 0.006 % wt; (tacrolimus in Isopropyl isostearate) 0.19 % wt; (tacrolimus in Isopropyl myristate) 0.25 % wt; (tacrolimus in Isopropyl palmitate) 0.26 % wt; (tacrolimus in Mineral oil) 0.003 % wt.
